Reference: patent US12673915B2, “Precursor compound of hexahydro-beta-acid component compound, feed composition and use thereof” (WISORIG TECHNOLOGIES PTE. LIMITED, priority 2020, dated 2026)

Legend:
[1] = Long-term stability in feeds at room temperature (25° C.±2° C., RH 60%±10%; HPLC); format: physicochemical; details: for stability / content in feeds at room temperature (in words): during the testing period
From the text: Feeds: ZUSF's premixed feed (A mixture of crushed Feed A and crushed Feed B at a weight ratio of 2:1, wherein Feed A was a 5.33% multi-premixed feed for piglets from ZUSF's Hao-Ru-Zhen-Jing, and B was a 2.67% multi-premixed feed for piglets from ZUSF's Hao-Ru-Zhen-Jing); creep feed for piglets from CP FEED; INSIGHTER's feed for broiler; 4% premixed feed from GUANGDONG CO-POWER.
Preparation of a sample of 1% premix of Ingredient: 1 g of an ingredient was respectively weighed out and evenly mixed with 99 g of corncob meal in a mixer to give a sample of 1% premix of an ingredient.
Preparation of a sample of 500 ppm feed of an ingredient: The sample of 1% premix of an ingredient was diluted step by step using the ZUSF's remixed feed to 5000 ppm and 500 ppm to give the sample of 500 ppm feed of an ingredient for later testing.
Preparation of a sample of 100 ppm feed of an ingredient: sample of 1% premix of an ingredient was diluted step by step using the creep feed for piglets from CP FEED to 1000 ppm and then 100 ppm to give the sample of 100 ppm feed of an ingredient for later testing.
Preparation of a sample of 100 ppm feed of an ingredient: The sample of 1% premix of an ingredient was diluted step by step using the INSIGHTER's feed for broiler to 1000 ppm and 100 ppm to give the sample of 100 ppm feed of an ingredient for later testing.
Preparation of a sample of 2000 ppm feed of an ingredient: The sample of 1% premix of an ingredient was diluted step by step using the 4% premixed feed from GUANGDONG CO-POWER to 5000 ppm and 2000 ppm to give the sample of 2000 ppm feed of an ingredient for later testing.
Method: Three replications of each feed sample were tested at the condition of 25° C.±2° C. and RH 60%±10%, wherein the replications of each feed sample were sampled in parallel for HPLC analysis on day 5, day 10, day 15, day 30, day 60, and day 90.
25.0 mg of an ingredient was accurately weighed out and dissolved in an appropriate amount of methanol or n-hexane by ultrasonication. The solution was then transferred to a volumetric flask and diluted to 50 mL to give a 500 ppm (by wt.) stock solution. The samples from the stock solution were diluted with methanol or n-hexane respectively to a concentration of 10 ppm, 25 ppm, 50 ppm, 100 ppm, and 250 ppm of work solution, and then the working solutions were filtered by 0.22 μm organic membranes. Between the concentration of a sample and the response value of HPLC peak area thereof, the linearity was adjusted and detected to give a standard curve.
5.0000 g of the samples sampled at different time intervals were respectively accurately weighed out, and dissolved in 25 mL of methanol or n-hexane by ultrasonication for 10 minutes. The resulting solutions were filtered by organic membranes and then analyzed by HPLC.
• Equipment: Waters e2695 with PDA detector. • Mobile phase: 0.02% phosphoric acid:methanol=5:95 (v:v). • Column: Symmetry Cis column (Waters; 250 mm×4.6 mm, 5 μm). • Wavelength: 235 nm. • Temperature of the Column: 25° C. • Injection volume: 10 μL. • Flow rate: 1 mL/min. Normal Phase Chromatography: • Equipment: Shimadzu LC-14C/SPD-15C. • Column: SuperSil NH2 column ([…]; 250 mm×4.6 mm). • Mobile phase: n-hexane:isopropanol=60:40 (v:v). • Wavelength: 235 nm. • Temperature of the Column: 25° C. • Injection volume: 20 μL. • Flow rate: 1 mL/min. 3: Results

[2] = tested on: Duroc×Landrace×Yorkshire cross-bred bacon-type piglets; experiment: Effect on the production performance of hogs (14-day feeding trial); format: in vivo; details: 25 ppm in feed; for ADFI (average daily feed intake) / ADG (average daily weight gain) / FCR (feed conversion ratio): 14 days, piglets
From the text: 480 67-day-old Duroc×Landrace×Yorkshire cross-bred bacon-type piglets with similar body weight, were randomly divided into 16 groups, with 3 replications per group, 10 piglets per replication and equal amounts of males and females. The pig pen and tools were sterilized before the trial. In the trial, the piglets were kept in separate regions in the same pig pen under the same feeding and management conditions, were given a free hand with the feed and the water, and were fed twice a day. The groups were known as control group (group 1) and test groups 2 to 16. The piglets of the control group were fed with basal formula feed only, while those of the test groups 2 to 16 were respectively fed with basal formula feed mixed with different additives, wherein the active ingredient of the additives was a hexahydro-β-acid compound or a prodrug of a hexahydro-β-acid compound provide herein, and the content thereof in the feed was 5 or 25 ppm as shown in Table 4.
The trial lasted for 14 days. During the trial, each test group was not fed with other antioxidants or growth enhancers. On the 14th day, each test group was fed with no feed but water for 12 hours, and the piglets of each replication as one unit were weighed to calculate the average daily feed intake (ADFI, g/d per piglet), the average daily weight gain (ADG, g/d per piglet), and the feed conversion ratio (FCR). Average daily feed intake=(Total weight of provided feed−Weight of residual feed)/(Days of the trial×Number of piglets in each replicate) Average daily weight gain=(final average body weight−initial average body weight)/Days of the trial Feed conversion ratio=average daily feed intake/average daily weight gain

[3] = 100 ppm in INSIGHTER's broiler feed, Day 5
[4] = 100 ppm in INSIGHTER's broiler feed, Day 15
[5] = 100 ppm in INSIGHTER's broiler feed, Day 30
[6] = 100 ppm in INSIGHTER's broiler feed, Day 60
[7] = 100 ppm in INSIGHTER's broiler feed, Day 90
[8] = 100 ppm in creep feed for piglets from CP FEED, Day 5
[9] = 100 ppm in creep feed for piglets from CP FEED, Day 15
[10] = 100 ppm in creep feed for piglets from CP FEED, Day 30
[11] = 100 ppm in creep feed for piglets from CP FEED, Day 60
[12] = 100 ppm in creep feed for piglets from CP FEED, Day 90
[13] = 500 ppm in ZUSF's premixed feed, Day 15
[14] = 500 ppm in ZUSF's premixed feed, Day 30
[15] = 500 ppm in ZUSF's premixed feed, Day 60
[16] = 500 ppm in ZUSF's premixed feed, Day 90

Residual amount of active ingredient [1, 3] [%] | Residual amount of active ingredient [1, 4] [%] | Residual amount of active ingredient [1, 5] [%] | Residual amount of active ingredient [1, 6] [%] | Residual amount of active ingredient [1, 8] [%] | Residual amount of active ingredient [1, 9] [%] | Residual amount of active ingredient [1, 10] [%] | Residual amount of active ingredient [1, 11] [%] | Residual amount of active ingredient [1, 12] [%] | Molecule | ADFI (average daily feed intake) [2] [g/d per piglet] | ADG (average daily weight gain) [2] [g/d per piglet] | FCR (feed conversion ratio) [2] | further results
99.63 | 99.65 | 99.68 | 98.68 |  |  |  |  |  | CCCCCCCCCCCC(=O)OC1=C(CCC(C)C)C(=O)C(CCC(C)C)(CCC(C)C)C(O)=C1C(=O)C(C)C [hexahydro-colupulone mono-laurate] | 918 | 383 | 2.399 | Residual amount of active ingredient [1, 7]: 98.47%; Residual amount of active ingredient ([1]; 1000 ppm in INSIGHTER's broiler feed, Day 5): 101.19%; Residual amount of active ingredient ([1]; 1000 ppm in INSIGHTER's broiler feed, Day 15): 101.72%; Residual amount of active ingredient ([1]; 1000 ppm in INSIGHTER's broiler feed, Day 30): 98.60%; Residual amount of active ingredient ([1]; 1000 ppm in INSIGHTER's broiler feed, Day 60): 97.85%; Residual amount of active ingredient ([1]; 1000 ppm in INSIGHTER's broiler feed, Day 90): 95.26%; effects on the performance of piglets compared with mono-acetate and mono-butyrate (in words) [2]: not as significant
86.64 | 83.77 | 81.32 | 76.53 | 66.59 | 58.39 | 55.80 | 47.76 | 44.33 | disodium salt of hexahydro-colupulone mono-phosphate [reference compound] |  |  |  | Residual amount of active ingredient [1, 7]: 62.97%
98.84 | 98.12 | 97.73 | 96.64 | 100.94 | 98.82 | 96.92 | 96.01 | 95.61 | hexahydro-colupulone mono-pentanoate |  |  |  | Residual amount of active ingredient [1, 13]: 94.29%; Residual amount of active ingredient [1, 14]: 94.80%; Residual amount of active ingredient [1, 15]: 88.17%; Residual amount of active ingredient [1, 16]: 89.14%; stability / content in feeds at room temperature (in words) [1]: relatively poor in some of the feeds
 |  |  |  |  |  |  |  |  | CCCC(=O)OC1=C(CCC(C)C)C(=O)C(CCC(C)C)(CCC(C)C)C(O)=C1C(=O)C(C)CC (centres unmarked) [Hexahydro-adlupulone mono-butyrate, hexahydro-adlupulone mono-butyrate] | 883 | 398 | 2.221 | 
 |  |  |  |  |  |  |  |  | CCC(=O)OC1=C(CCC(C)C)C(=O)C(CCC(C)C)(CCC(C)C)C(OC(=O)CC)=C1C(=O)C(C)C [Hexahydro-colupulone di-propionate, hexahydro-colupulone di-propionate] | 926 | 415 | 2.231 | 
 |  |  |  |  |  |  |  |  | CCC(=O)OC1=C(CCC(C)C)C(=O)C(CCC(C)C)(CCC(C)C)C(O)=C1C(=O)C(C)CC (centres unmarked) [Hexahydro-adlupulone mono-propionate, hexahydro-adlupulone mono-propionate] | 876 | 393 | 2.228 | 
 |  |  |  |  |  |  |  |  | CCC(C)C(=O)C1=C(O)C(CCC(C)C)(CCC(C)C)C(=O)C(CCC(C)C)=C1O (centres unmarked) [Hexahydro-adlupulone, reference compound] | 860 | 384 | 2.240 | 
 |  |  |  |  |  |  |  |  | CCCC(=O)OC1=C(CCC(C)C)C(=O)C(CCC(C)C)(CCC(C)C)C(OC(=O)CCC)=C1C(=O)C(C)C [Hexahydro-colupulone di-butyrate, hexahydro-colupulone di-butyrate] | 950 | 413 | 2.298 | 
98.90 | 97.72 | 96.58 | 95.77 | 102.18 | 96.14 | 95.30 | 95.20 | 95.55 | hexahydro-colupulone mono-hexanoate | 913 | 383 | 2.386 | Residual amount of active ingredient [1, 13]: 87.50%; Residual amount of active ingredient [1, 14]: 89.00%; Residual amount of active ingredient [1, 15]: 86.07%; Residual amount of active ingredient [1, 16]: 83.77%; stability / content in feeds at room temperature (in words) [1]: relatively poor in some of the feeds; effects on the performance of piglets compared with mono-acetate and mono-butyrate (in words) [2]: not as significant
